According to patent US9486422B2, “Small molecule inhibitors of Mcl-1 and the uses of thereof” (THE REGENTS OF THE UNIVERSITY OF MICHIGAN, priority 2011, dated 2016):
Where two headings read alike, the source gives them in different places.

Target: Mcl-1 (Homo sapiens, UniProt Q07820)
Test: FP-based binding assay, Mcl-1
Conditions: for Ki: read-out: Mcl-1 Ki ± SD; for binding to Mcl-1, result in words: FP assay
[1] = competitive FP, Flu-BID 2 nM, Mcl-1 90 nM, read-out: Mcl-1 IC50 ± SD
[2] = competitive FP, Ki calculated from IC50

Chain of Mcl-1 (Q07820 171-327): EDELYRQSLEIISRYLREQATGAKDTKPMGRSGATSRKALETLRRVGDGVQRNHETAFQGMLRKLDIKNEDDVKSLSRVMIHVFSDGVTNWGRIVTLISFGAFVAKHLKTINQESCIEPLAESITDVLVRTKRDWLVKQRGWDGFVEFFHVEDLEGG

| Compound | IC50 [1] | Ki [2] | also measured |
| --- | --- | --- | --- |
| O=C(O)CSc1cc(NS(=O)(=O)c2ccccc2)c2ccccc2c1O [Compound 2, 2-((1-Hydroxy-4-(phenylsulfonamido)naphthalen-2-yl)thio)acetic acid] | 13 ± 1.62 µM | – | Ki: 3.56 ± 0.45 µM |
| Cc1ccc(S(=O)(=O)Nc2cc(SCC(=O)O)c(O)c3ccccc23)cc1 [Compound 3] | 11.5 ± 0.78 µM | 3.13 ± 0.22 µM | – |
| CCc1ccc(S(=O)(=O)Nc2cc(SCC(=O)O)c(O)c3ccccc23)cc1 [Compound 4] | 5.73 ± 1.34 µM | 1.55 ± 0.37 µM | – |
| COc1c(SCC(N)=O)cc(NS(=O)(=O)c2ccc(Br)cc2)c2ccccc12 [Compound 4v, 2-((4-(4-Bromophenylsulfonamido)-1-methoxynaphthalen-2-yl)thio)acetamide] | – | > 25 µM | binding to Mcl-1, result in words: loss of binding |
| CC(C)c1ccc(S(=O)(=O)Nc2cc(SCC(=O)O)c(O)c3ccccc23)cc1 [Compound 5] | – | 1.06 ± 0.17 µM | IC50 (read-out: Mcl-1 IC50 ± SD): 3.92 ± 0.63 µM |
| CC(C)(C)c1ccc(S(=O)(=O)Nc2cc(SCC(=O)O)c(O)c3ccccc23)cc1 [Compound 6] | 3.03 ± 0.17 µM | 0.81 ± 0.04 µM | – |
| O=C(O)CSc1cc(NS(=O)(=O)c2ccc(F)cc2)c2ccccc2c1O [Compound 7] | 15.5 ± 3.38 µM | 4.23 ± 0.93 µM | – |
| O=C(O)CSc1cc(NS(=O)(=O)c2ccc(Cl)cc2)c2ccccc2c1O [Compound 8, 2-((4-(4-Chlorophenylsulfonamido)-1-hydroxynaphthalen-2-yl)thio)acetic acid] | 3.08 ± 0.35 µM | – | Ki: 0.82 ± 0.1 µM |
| O=C(O)CSc1cc(NS(=O)(=O)c2cccc(Br)c2)c2ccccc2c1O [Compound 10, 2-((4-(3-Bromophenylsulfonamido)-1-hydroxynaphthalen-2-yl)thio)acetic acid] | 8.64 ± 0.69 µM | 2.35 ± 0.19 µM | – |
| O=C(O)CSc1cc(NS(=O)(=O)c2ccccc2Br)c2ccccc2c1O [Compound 11, 2-((4-(2-Bromophenylsulfonamido)-1-hydroxynaphthalen-2-yl)thio)acetic acid] | 16.2 ± 3.12 µM | – | Ki: 4.42 ± 0.86 µM |
| O=C(O)CSc1cc(NS(=O)(=O)c2cc3ccccc3s2)c2ccccc2c1O [Compound 12, 2-((4-(Benzo[b]thiophene-2-sulfonamido)-1-hydroxynaphthalen-2-yl)thio)acetic acid] | – | 1.54 ± 0.32 µM | IC50: 5.66 ± 1.15 µM |
| O=C(O)CSc1cc(NS(=O)(=O)c2ccc3ccccc3c2)c2ccccc2c1O [Compound 13] | 2.74 ± 0.18 µM | 0.73 ± 0.05 µM | – |
| O=C(O)CSc1cc(NS(=O)(=O)c2ccc(-c3ccc(Cl)cc3)cc2)c2ccccc2c1O [Compound 17, 2-((4-(4′-Chloro-[1,1′-biphenyl]-4-ylsulfonamido)-1-hydroxynaphthalen-2-yl)thio)acetic acid] | 0.68 ± 0.14 µM | 0.17 ± 0.04 µM | – |
| CCOc1ccc(S(=O)(=O)Nc2cc(SCC(=O)O)c(O)c3ccccc23)cc1 [Compound 19] | 50.1 ± 4.15 µM | 13.7 ± 1.14 µM | – |
| O=C(O)CSc1cc(NS(=O)(=O)c2ccc(C(=O)O)cc2)c2ccccc2c1O [Compound 20] | 17.4 µM | 4.76 µM | – |
| CS(=O)(=O)Nc1cc(SCC(=O)O)c(O)c2ccccc12 [Compound 21, 2-((1-Hydroxy-4-(methylsulfonamido)naphthalen-2-yl)thio)acetic acid] | > 200 µM | > 50 µM | – |
| O=C(O)CSc1cc(NC(=O)c2ccc(Br)cc2)c2ccccc2c1O [Compound 23, 2-((4-(4-Bromobenzamido)-1-hydroxynaphthalen-2-yl)thio)acetic acid] | > 100 µM | > 25 µM | – |
| O=C(O)CSc1cc(NC(=O)Cc2ccccc2)c2ccccc2c1O [Compound 24, 2-((1-Hydroxy-4-(2-phenylacetamido)naphthalen-2-yl)thio)acetic acid] | 154 ± 40.2 µM | 42.4 ± 11 µM | – |
| O=C(O)CSc1cc(NS(=O)(=O)Cc2ccc(Cl)cc2)c2ccccc2c1O [Compound 25, 2-((4-((4-Chlorophenyl)methylsulfonamido)-1-hydroxynaphthalen-2-yl)thio)acetic acid] | 19.1 ± 1.31 µM | 5.23 ± 0.36 µM | – |
| O=S(=O)(Nc1ccc(O)c2ccccc12)c1ccccc1 [Compound 27, N-(4-Hydroxynaphthalen-1-yl)benzenesulfonamide] | > 100 µM | > 25 µM | binding to Mcl-1, result in words: abolished binding |
| CCCCSc1cc(NS(=O)(=O)c2ccc(Br)cc2)c2ccccc2c1O [Compound 30, 4-Bromo-N-(3-(butylthio)-4-hydroxynaphthalen-1-yl)benzenesulfonamide] | > 100 µM | > 25 µM | binding to Mcl-1, result in words: abolished the binding to Mcl-1 protein |
| O=S(=O)(Nc1cc(CCCCO)c(O)c2ccccc12)c1ccc(Br)cc1 [Compound 32, 4-Bromo-N-(4-hydroxy-3-(4-hydroxybutyl)naphthalen-1-yl)benzenesulfonamide] | 8.01 ± 3.31 µM | – | fold decreased binding to Mcl-1 compared to 9 (UMI-77): 4 fold; Ki: 2.18 ± 0.91 µM |
| NC(=O)CSc1cc(NS(=O)(=O)c2ccc(Br)cc2)c2ccccc2c1O [Compound 33, 2-((4-(4-Bromophenylsulfonamido)-1-hydroxynaphthalen-2-yl)thio)acetamide] | 6.27 ± 1.28 µM | – | Ki: 1.71 ± 0.35 µM |
| O=C(O)CCSc1cc(NS(=O)(=O)c2ccc3ccccc3c2)c2ccccc2c1O [Compound 34, 3-((1-Hydroxy-4-(naphthalene-2-sulfonamido)naphthalen-2-yl)thio)propanoic acid] | 4.2 ± 1.25 µM | 1.13 ± 0.34 µM | – |
| O=C(O)CCSc1cc(NS(=O)(=O)c2cccc3ccccc23)c2ccccc2c1O [Compound 35] | > 50 µM | > 12.5 µM | – |
| COC(=O)CSc1cc(NS(=O)(=O)c2ccc(Br)cc2)c2ccccc2c1OC [Compound 40d, Methyl 2-((4-(4-bromophenylsulfonamido)-1-methoxynaphthalen-2-yl)thio)acetate] | > 800 µM | > 200 µM | – |
| CCCCSc1cc(NS(=O)(=O)c2ccc(Br)cc2)c2ccccc2c1OC [Compound 40p, 4-Bromo-N-(3-(butylthio)-4-methoxynaphthalen-1-yl)benzenesulfonamide] | > 800 µM | > 200 µM | – |
